From patent US20230355553A1, “COMPOSITIONS AND METHODS FOR TREATING AND/OR PREVENTING OCULAR DISORDERS” (University of Virginia Patent Foundation, priority 2020, published 2023)

Legend:
[1] = test system: Alu RNA-induced RPE degeneration; assay: Alu RNA-induced RPE degeneration in mice, racemic fluoxetine vs enantiomers (fundus photos); format: in vivo, mouse; conditions: subretinal Alu RNA 180 ng, 172 ng drug intravitreous, 7 days
Experimental: In vitro transcribed Alu RNA (SEQ ID NO: 1; 180 ng) was injected into the subretinal space of mice and 172 ng racemic fluoxetine (TCI Chemicals, Portland, Oregon, United States of America) or enantiomers of fluoxetine (Santa Cruz Biotechnology, Inc., Dallas, Texas, United States of America) was injected into the vitreous humor. Fundus photos were captured 7 days later. […] Arrowheads show the extent and intensity of degeneration of the retinal pigmented epithelium (RPE).

[2] = test system: secreted IL-18; assay: ELISA of secreted cytokine from human ARPE-19 cells; format: cell-based; conditions: Alu RNA (FIG. 4A), Fluoxetine 10 µM, P < 0.005
[3] = test system: caspase-1 activation; assay: Western blot of Alu RNA-induced caspase-1 activation in mouse BMDMs; format: cell-based; conditions: Alu RNA-transfected mouse BMDMs, Fluoxetine 10 µM, n = 3 per group
Experimental: (§1) Cell culture. The human retinal pigment epithelial cell line ARPE-19 (ATCC) was maintained in Dulbecco’s Modified Eagle Medium (DMEM) supplemented with 10% fetal bovine serum (FBS) and standard antibiotics. Mouse bone marrow derived macrophages (BMDMs) were cultured in Iscove’s modified Dulbecco’s media (IMDM) with 10% FBS and 20% L929 supernatants. All cells were maintained at 37° C. in a 5% CO2 environment.
(§2) In order to test for the ability of fluoxetine to inhibit inflammasome activation, cells were transfected with (SEQ ID NO: 1) RNA or mock-transfected for 12 hour and pre-treated with Fluoxetine (10 µM) for 1 hour and again after Alu RNA (SEQ ID NO: 1) transfection. Supernatants were collected and were briefly spun down to remove floating cells. Proteins from the cell-free supernatant were precipitated by adding sodium deoxycholate (0.15% final) followed by adding TCA (7.2% final) and incubating on ice overnight. Samples were spun down at 13000 × g for 30 minutes and pellets were washed 2 times with ice-cold acetone. Precipitated proteins solubilized in 4X LDS Buffer with 2-mercaptoethanol were resolved by SDS-PAGE on NOVEX® brand Tris-Glycine Gels (Invitrogen Corporation, Carlsbad, California, United States of America) and transferred onto Immobilon-FL PVDF membranes (MilliporeSigma, Burlington, Massachusetts, United States of America). […]

[4] = test system: secreted IL-1β; assay: ELISA of secreted cytokine from mouse bone marrow derived macrophages; format: cell-based; conditions: mouse BMDMs, B2 RNA (FIG. 3B), Fluoxetine 10 µM, P = 0.01
[5] = test system: cataract formation; assay: Cataract formation after administration of fluoxetine preparations to the eye; format: in vivo
[6] = test system: caspase-1 activation; assay: Western blot of Alu RNA-induced caspase-1 activation in human ARPE19 cells; format: cell-based; conditions: Alu RNA-transfected human ARPE19 cells, Fluoxetine 10 µM, n = 3 per group
Experimental: as §1, §2

[7] = test system: ASC specks; assay: ASC speck assay in BMDMs; format: cell-based, mouse; conditions: Alu RNA-transfected BMDMs; Fluoxetine 10 µM pretreatment 2 hours; n = 5; P = 0.006
Experimental: The ASC speck assay was employed as a measure of inflammasome activation. BMDMs seeded on chambered coverslips (30,000 cells/well) for 12 hours were pretreated with Fluoxetine (10 µM) or 0.1% DMSO (control) for 2 hours. Cells were transfected with Alu RNA (SEQ ID NO: 1) using LIPOFECTAMINE™ 3000 brand transfection reagent (Thermo Fisher Scientific, Waltham, Massachusetts, United States of America) for 12 hours. Coverslips were fixed with 2% paraformaldehyde (15 minutes at room temperature), washed with PBS, permeabilized, blocked with blocking buffer (PBS, 0.1% TX-100, 5% normal goat serum; 1 hour at 4° C.) and incubated with anti-ASC antibody (Adipogen; 1:300) with blocking buffer. Nuclei were stained with DAPI. Slides mounted using FLUOROMOUNT-G® brand mounting medium (SouthernBiotech, Birmingham, Alabama, United States of America) were imaged by confocal microscopy (Nikon A1R). The numbers of specks per 40x field were compared by two-tailed Student’s t test.

[8] = test system: dry macular degeneration; assay: Health insurance claims analysis (PearlDiver database) of dry macular degeneration among patients with depression; format: in vivo, human
Description: Data on patients with commercial health insurance was obtained from the PearlDiver Patient Records Database (Colorado Springs, Colorado, United States of America), which captures health care claims and medication usage for persons in the Humana network from 2007 to 2017. These de-identified data are Health Insurance Portability and Accountability Act-compliant and were deemed by the University of Virginia Institutional Review Board (IRB; University of Virginia, Charlottesville, United States of America) as exempt from IRB approval requirements.
Patients were included in the analysis if they had continuous enrollment in the plan for at least 1 year and had at least 2 medical claims of Depression and were at least 50 years of age at baseline. Individuals with pre-existing Dry Macular Degeneration (1 or more medical claims prior to diagnosis of Depression) were excluded. Disease claims were identified by International Classification of Diseases (ICD)-9-CM and ICD-10-CM codes.
Individuals were classified as receiving Fluoxetine if they filled one or more outpatient pharmacy prescriptions for generic or brand versions, either in sole form or as a combination medication, as identified by National Drug Codes of the Food and Drug Administration (FDA) of the United States.
Time to initial diagnosis of Dry Macular Degeneration, which was confirmed by 2 or more medical claims, was the dependent variable for this analysis.
To analyze the risk of Dry Macular Degeneration between those exposed to Fluoxetine and those not exposed to Fluoxetine, an adjusted Cox proportional hazards model was fit. The adjusted model included as covariates age, gender, race, smoking, and body mass index.
The event rates of dry macular degeneration in the general population and in the depression cohort are shown. Fluoxetine use was associated with a crude risk reduction of 28%. P < 0.0001 by χ2 test. Fluoxetine use was associated with a reduction in the hazard of developing dry macular degeneration. P < 0.0001 by likelihood ratio test.

[9] = test system: amyloid beta-induced RPE degeneration; assay: Oligomerized amyloid beta-induced RPE degeneration in mice (fundus photos); format: in vivo, mouse; conditions: subretinal oligomerized amyloid beta, fluoxetine 172 ng intravitreous, 7 days
Experimental: The ability of fluoxetine to inhibit RPE degeneration induced by oligomerized amyloid beta was also tested. Oligomerized amyloid beta (0.6 micromoles; AnaSpec Inc., Fremont, California, United States of America) was injected into the subretinal space and fluoxetine (172 ng; TCI Chemicals) was injected into the vitreous humor. Fundus photos were captured 7 days later.

[10] = test system: Alu RNA-induced RPE degeneration; assay: Alu RNA-induced RPE degeneration in mice (ZO-1-stained RPE flat mounts); format: in vivo, mouse; conditions: subretinal Alu RNA 300 ng, drug 1 mM in 0.5 µl intravitreous 24 hours before and immediately after, 7 days
Experimental: Animals. Animal experiments were approved by the University of Virginia (UVA) Institutional Animal Care and Use Committee. C57BL/6J mice (The Jackson Laboratory) were anesthetized with ketamine hydrochloride and xylazine.
The ability of various antidepressant drugs to inhibit Alu RNA (SEQ ID NO: 1) induced RPE degeneration was tested in mice. In vitro transcribed Alu RNA (SEQ ID NO: 1; 300 ng in 1 µl) or vehicle control (PBS) were injected subretinally into mice. Fluoxetine (FLX), Citalopram (CIT), Paroxetine (PAR), Sertraline (SER), Escitalopram (ESC), Venlafaxine (VEN), Imipramine (IMI), Amitriptyline (AMI), Agomelatine (AGO; all from Cayman Chemical Company, Ann Arbor, Michigan, United States of America; 1 mM in 0.5 µl), or PBS was injected into the vitreous humor 24 hours before and immediately after Alu RNA (SEQ ID NO: 1) injections. Animals were euthanized 7 days after Alu RNA (SEQ ID NO: 1) injection, and the eyes were enucleated.
RPE health was assessed by immunofluorescence staining of zonula occludens-1 (ZO-1) on RPE flat mounts. Flat mounts were fixed with 2% paraformaldehyde, stained with rabbit polyclonal antibodies against mouse ZO-1 (Invitrogen; 1:100), and visualized with Alexa-594 (Invitrogen), and imaged using an A1R Nikon confocal microscope. Images were graded as healthy or degenerated in masked fashion. […]

Row | SMILES | RPE degeneration extent and intensity (fundus photos) [1] | secreted IL-18 (FIG. 4A) [2] | caspase-1 activation (cleavage of pro-caspase-1 into active caspase-1) [3] | secreted IL-1β (FIG. 3B) [4] | cataract formation, share of subjects [5] | caspase-1 activation (cleavage of pro-caspase-1 into active caspase-1) [6] | ASC speck formation (number of specks per 40x field) [7] | Hazard Ratio (95% Confidence Interval) of developing dry macular degeneration ([8]; Fluoxetine Use Yes vs. No, multivariate Cox regression corrected for age, gender, race, smoking, body mass index) | crude risk reduction of dry macular degeneration ([8]; Fluoxetine use vs no use, P < 0.0001 by χ2 test) | rate of developing dry macular degeneration (Kaplan-Meier) ([8]; Fluoxetine use, log rank test P < 0.0001 (FIG. 7)) | Event Rate of dry macular degeneration ([8]; Fluoxetine users (Ever), depression cohort) | Dry Macular Degeneration (#) ([8]; Fluoxetine users (Ever), depression cohort, age at least 50, 84,603 total patients) | RPE degeneration extent and intensity (fundus photos) [9] | RPE degeneration (percentage of eyes with RPE degeneration) [10]
1 | CNCC[C@@H](Oc1ccc(C(F)(F)F)cc1)c1ccccc1 [R-fluoxetine] | more complete protection |  |  |  |  |  |  |  |  |  |  |  |  | 
2 | CNCC[C@H](Oc1ccc(C(F)(F)F)cc1)c1ccccc1 [S-fluoxetine] | more complete protection |  |  |  |  |  |  |  |  |  |  |  |  | 
3 | CNCCC(Oc1ccc(C(F)(F)F)cc1)c1ccccc1 (racemic) [Fluoxetine, N-methyl-3-phenyl-3-[4-(trifluoromethyl)phenoxy]propan-1-amine] | reduced the RPE degeneration extent and intensity, although the protection was partial | statistically significantly reduced | reduced | statistically significantly reduced | up to 50% | reduced | inhibited | 0.590 (0.565, 0.616) | 28% | slower rate | 3.5% | 3,000 | reduced the RPE degeneration extent and intensity | significantly reduced
